Earlier results on one compound are cited in patent US20150272930A1, “Fixed Dosage Formulations of Angiotensin Converting Enzyme (ACE) inhibitor and the Diuretic Chlorthalidone” (AILEX Pharmaceuticals PVT. LTD., priority 2014, published 2015).

The conditions of the data set: compared with HCTZ.

With `NS(=O)(=O)c1cc(C2(O)NC(=O)c3ccccc32)ccc1Cl` (centres unmarked) [Chlorthalidone, 2-chloro-5-(1-hydroxy-3-oxo-1,2-dihydroisoindol-1-yl)-benzenesulfonamide], the duration of action entry is recorded as “longer duration of action”. The antihypertensive effectiveness entry (over 24 hours) was “more effective antihypertensive agent”.
